From US20100298141A1, “SUBSTITUTED PYRIDINE N-OXIDE HERBICIDES” (E. I. DU PONT DE NEMOURS AND COMPANY, priority 2007, published 2010)

How the values were obtained:
[1] = test system: crabgrass; experiment: Test A pre-/postemergence greenhouse test; assay type: in vivo, Digitaria sanguinalis; details: for Crabgrass, Large plant response rating: 0 to 100 scale
Summary of the method: (§1)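 Visual injury ratings against untreated controls, taken roughly ten days after treatment in greenhouse. Plants were sprayed postemergence at one- to two-leaf stage (2–10 cm tall); at the same time, seeded loam/sand soil received a directed preemergence spray. Formulation: non-phytotoxic solvent mixture with surfactant.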

[2] = test system: morningglory; experiment: Test A pre-/postemergence greenhouse test; assay type: in vivo, Ipomoea spp.; details: for Morningglory plant response rating: 0 to 100 scale
Summary of the method: as §1

[3] = test system: redroot pigweed; experiment: Test A pre-/postemergence greenhouse test; assay type: in vivo, Amaranthus retroflexus; details: for Pigweed plant response rating: 0 to 100 scale
Summary of the method: as §1

[4] = test system: blackgrass; experiment: Test C pre-/postemergence test; assay type: in vivo, Alopecurus myosuroides
Summary of the method: (§2)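 Seeds were planted and treated preemergence with test chemical in a non-phytotoxic solvent mixture containing surfactant. Postemergence applications of the same formulation went onto plants 2 to 18 cm tall (1- to 4-leaf stage). A dash marks no test result.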

[5] = test system: green foxtail; experiment: Test C pre-/postemergence test; assay type: in vivo, Setaria viridis
Summary of the method: as §2

[6] = test system: Italian ryegrass; experiment: Test C pre-/postemergence test; assay type: in vivo, Lolium multiflorum
Summary of the method: as §2

[7] = test system: wheat; experiment: Test C pre-/postemergence test; assay type: in vivo, Triticum aestivum
Summary of the method: as §2

[8] = test system: wild oat; experiment: Test C pre-/postemergence test; assay type: in vivo, Avena fatua
Summary of the method: as §2

[9] = test system: corn; experiment: Test C pre-/postemergence test; assay type: in vivo, Zea mays
Summary of the method: as §2

[10] = test system: woolly cupgrass; experiment: Test C pre-/postemergence test; assay type: in vivo, Eriochloa villosa
Summary of the method: as §2

[11] = test system: Goosegrass; experiment: Test C pre-/postemergence test; assay type: in vivo, Eleusin indica
Summary of the method: as §2

[12] = test system: eastern black nightshade; experiment: Test C pre-/postemergence test; assay type: in vivo, Solanum ptycanthum
Summary of the method: as §2

[13] = test system: yellow nutsedge; experiment: Test C pre-/postemergence test; assay type: in vivo, Cyperus esculentus
Summary of the method: as §2

[14] = test system: common ragweed; experiment: Test C pre-/postemergence test; assay type: in vivo, Ambrosia elation
Summary of the method: as §2

[15] = test system: common (oilseed) sunflower; experiment: Test C pre-/postemergence test; assay type: in vivo, Helianthus annuus
Summary of the method: as §2

[16] = test system: umbrella sedge; experiment: Test C flooded paddy test; assay type: in vivo, Cyperus difformis; details: Flood
Summary of the method: (§3)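 Under a constant 3 cm flood, test compounds went directly into the paddy water. Following 13 to 15 days of greenhouse growth, treated species and controls were compared by eye.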

[17] = test system: duck salad; experiment: Test C flooded paddy test; assay type: in vivo, Heteranthera limosa; details: Flood
Summary of the method: as §3

[18] = Postemergence, 125 g ai/ha, 0 is no effect, 100 is complete control
[19] = Postemergence, 500 g ai/ha, 0 is no effect, 100 is complete control
[20] = Preemergence, 125 g ai/ha, 0 no effect, 100 complete control
[21] = Preemergence, 500 g ai/ha, 0 to 100 scale where 0 is no effect and 100 is complete control
[22] = Preemergence, 31 g ai/ha, scale 0 to 100 (0 no effect, 100 complete control)
[23] = preemergence, 250 g ai/ha, scale 0 (no effect) to 100 (complete control)
[24] = 62 g ai/ha, Preemergence, scale 0 to 100
[25] = 125 g ai/ha, preemergence, scale 0 (no effect) to 100 (complete control)
[26] = 31 g ai/ha, scale 0 to 100 (0 no effect, 100 complete control)
[27] = 62 g ai/ha, scale 0 to 100, 0 no effect, 100 complete control, 13 to 15 days
[28] = 125 g ai/ha, scale 0 to 100, 0 no effect, 100 complete control, 13 to 15 days
[29] = 250 g ai/ha, scale 0 to 100, 0 no effect, 100 complete control, 13 to 15 days

Structure (SMILES): Cc1cc[n+]([O-])c(S(=O)(=O)C(Cl)c2c(C(F)(F)F)nn(C)c2OCC(F)(F)F)c1 (racemic) [Compound 37]
- Crabgrass, Large plant response rating [1, 18]: 30
- Crabgrass, Large plant response rating [1, 19]: 80
- Crabgrass, Large plant response rating [1, 20]: 60
- Plant response rating, Crabgrass, Large [1, 21]: 90
- Morningglory plant response rating [2, 18]: 0
- Morningglory plant response rating [2, 19]: 20
- Morningglory plant response rating [2, 20]: 0
- Plant response rating, Morningglory [2, 21]: 80
- Pigweed plant response rating [3, 18]: 20
- Pigweed plant response rating [3, 19]: 50
- Pigweed plant response rating [3, 20]: 100
- Plant response rating, Pigweed [3, 21]: 100
- Plant response rating, Blackgrass [4, 22]: 95
- Blackgrass plant response rating [4, 23]: 100
- Plant response rating, Foxtail, Green [5, 22]: 0
- Foxtail, Green plant response rating [5, 23]: 100
- Plant response rating, Ryegrass, Italian [6, 22]: 0
- Ryegrass, Italian plant response rating [6, 23]: 100
- Plant response rating, Wheat [7, 22]: 0
- Wheat plant response rating [7, 23]: 30
- Plant response rating, Oat, Wild [8, 22]: 0
- Oat, Wild plant response rating [8, 23]: 60
- Corn plant response rating [9, 24]: 5
- Corn plant response rating [9, 25]: 50
- Plant response rating, Corn [9, 22]: 0
- Corn plant response rating [9, 23]: 90
- Cupgrass, Woolly plant response rating [10, 24]: 80
- Cupgrass, Woolly plant response rating [10, 25]: 98
- Plant response rating, Cupgrass, Woolly [10, 22]: 40
- Cupgrass, Woolly plant response rating [10, 23]: 100
- Goosegrass plant response rating [11, 24]: 100
- Goosegrass plant response rating [11, 25]: 100
- Plant response rating, Goosegrass [11, 22]: 85
- Goosegrass plant response rating [11, 23]: 100
- Nightshade plant response rating [12, 24]: 80
- Nightshade plant response rating [12, 25]: 85
- Plant response rating, Nightshade [12, 22]: 80
- Nightshade plant response rating [12, 23]: 90
- Nutsedge, Yellow plant response rating [13, 24]: 0
- Nutsedge, Yellow plant response rating [13, 25]: 80
- Plant response rating, Nutsedge, Yellow [13, 22]: 0
- Nutsedge, Yellow plant response rating [13, 23]: 80
- Ragweed plant response rating [14, 24]: 0
- Ragweed plant response rating [14, 25]: 70
- Plant response rating, Ragweed [14, 22]: 0
- Ragweed plant response rating [14, 23]: 80
- Sunflower plant response rating [15, 24]: 0
- Sunflower plant response rating [15, 25]: 0
- Plant response rating, Sunflower [15, 22]: 0
- Sunflower plant response rating [15, 23]: 40
- Plant response rating, Sedge, Umbrella [16, 26]: 60
- Plant response rating, Sedge, Umbrella [16, 27]: 85
- Plant response rating, Sedge, Umbrella [16, 28]: 95
- Plant response rating, Sedge, Umbrella [16, 29]: 95
- Plant response rating, Ducksalad [17, 26]: 20
- Plant response rating, Ducksalad [17, 27]: 40
- Plant response rating, Ducksalad [17, 28]: 85
- Plant response rating, Ducksalad [17, 29]: 95
